System: HIV 115-mer
Test: Post-amplification sterilization: isopsoralen plus irradiation, reamplification of carryover
Format: biochemical
Details: for sterilization sensitivity (molecules of carryover sterilized): 115-mer PCR product; for amplification of carryover, not light-treated: no irradiation
Description: For the purposes of this determination, the steps of the following experiment include (see Figure 40): a) preparing template, b) providing template, c) providing PCR reagents, d) providing polymerase, e) mixing PCR reagents, template, and polymerase to initiate PCR, f) cycling to provide PCR product, g) carrying over of PCR product into new tubes, h) providing isopsoralen, i) adding isopsoralen to the carryover, j) irradiating, k) addition of new PCR reagents, and l) subsequent PCR. Steps a), b) , c) , d), e), and f). PCR product was provided as described earlier. Step g) carrying over of PCR product. Aliquots of PCR product were added into new reaction tubes at 10^6 copies per tube. Step h) Providing Isopsoralen. AMDMIP was synthesized as described and diluted. Step i) Addition of Isopsoralen. AMDMIP (100 µg/ml, approximately 10^-4 M) was added reaction vessels containing carryover. Step j) Irradiation. Irradiation was performed on the PTI device to avoid photoproduct. Three of the new reaction tubes were irradiated while the others were left unirradiated as controls. Irradiation was for 15 minutes at RT as above. Step k) PCR Reagents and Taq Polymerase Were Added to Appropriate Concentrations. The final volume was increased two fold such that AMDMIP photoproducts were at 50 µg/ml. Step l) Subsequent PCR. Amplification was performed in closed reaction vessels using primer pair SK-38/39 for 20, 25 or 30 cycles, using the temperature profile for cycling described above in the presence of α-^32P-dCTP.
For the purposes of this determination, the steps of the following experiment include (see Figure 42): a) preparing template, b) providing template, c) providing isopsoralen, d) providing PCR reagents, e) providing polymerase, f) mixing isopsoralen, PCR reagents, template, and polymerase to initiate PCR, g) cycling to provide PCR product, h) irradiating, i) carrying over of PCR product into new tubes at specific copy numbers, and j) amplifying in a subsequent PCR. Step a): Template preparation. HIV 115-mer was used as template. Step b) Providing Template. For the reaction, template (equivalent to approximately 10^7 copies) in buffer was provided for the reaction vessel. Step c) Providing Isopsoralen. AMDMIP (400 µg/ml) was provided as the isopsoralen. This is a higher concentration of AMDMIP than used in the previous example. Steps d), e), f) and g). PCR reagents and polymerase were provided, mixed and cycled as described above. This time, however, isopsoralen is part of the pre-amplification mixture. Step h) Irradiation. Irradiation was performed on the CE-III device for 15 minutes at 25°C. Step i) Carrying over of PCR product. Aliquots of PCR product were added into six new reaction tubes - two tubes for each dilution. Dilutions to yield 10^7, 10^5 and 10^3 copies were made. (Note that the dilutions were made from a concentration of approximately […]; thus, the dilutions produce a concentration of photoproduct that is far too low to consider photoproduct sterilization.) Step j) Subsequent PCR. New PCR reagents and polymerase were provided and mixed. Amplification was performed in closed reaction vessels using primer pair SK-38/39 for 30 cycles, using the temperature profile for cycling described above in the presence of α-^32P-dCTP.
The two PCR targets used in these experiments were a 115-mer (SK-38/SK-39 HIV system) and a 500-mer. The 500-mer target is obtained from a PCR amplification of a lambda plasmid with primers PCR 01/02. This system is provided by Cetus/Perkin Elmer as a control in their commercial kits of PCR reagents (Catalogue No. N801-0055). For both of these systems equivalent copy numbers of each target were prepared in the following manner: An initial 30 cycle PCR reaction was carried out for each system with the appropriate primers and targets. Aliquots (approximately 10^5-10^6 target copies) of each of these reactions were transferred to a second set of PCR reactions. […]

[1] = 100 µg/ml, CE-III 15 minutes, 30 cycles
[2] = 400 µg/ml, CE-III 15 minutes, 30 cycles

**Q.** 5-Aminomethylisopsoralen [AMIP] was tested. Which “sterilization sensitivity (molecules of carryover sterilized)” value [1] did it give?
**A.** The value was “about 10,000 molecules of carryover”.

**Q.** And the “sterilization sensitivity (molecules of carryover sterilized)” value [2]?
**A.** Its value is “about 10^6 carryover molecules”.

**Q.** What does the source list for “4'-Aminomethyl-4,5'-dimethylisopsoralen [AMDMIP]”?
**A.** sterilization of 115-mer PCR product compared with AMIP [1]: better sterilization agent; sterilization sensitivity (molecules of carryover sterilized) [2]: ≥ 6 x 10^9 carryover molecules; sterilization of carryover (AMDMIP 100 µg/ml added after amplification, PTI 15 minutes, 10^6 copies, thirty cycles): no significant sterilization is observed; sterilization of carryover (AMDMIP 100 µg/ml added after amplification, PTI 15 minutes, 10^6 copies, twenty cycles): sterilization appears to be complete; sterilization of carryover (AMDMIP 100 µg/ml added after amplification, PTI 15 minutes, 10^6 copies, twenty-five cycles, reduced relative to controls): PCR product is visible; amplification of carryover, not light-treated (AMDMIP 100 µg/ml, 20, 25, 30 cycles): show amplification; sterilization of carryover (AMDMIP 400 µg/ml present during amplification, CE-III 15 minutes at 25°C, 10^7, 10^5, 10^3 copies, 30 cycles): complete, post-amplification sterilization; amplification of carryover, not light-treated (AMDMIP 400 µg/ml present during first amplification, 30 cycles): show amplification; target molecules left capable of being replicated by PCR (inferred from 20 cycles with 100 CPM threshold and Table 6): less than 10^4 target molecules; target molecules that retained replicating capabilities (inferred from 25 cycles and Table 6): at least 10^3 target molecules

Source: EP0497921B1, “METHOD FOR INHIBITING ENZYMATIC SYNTHESIS OF NUCLEIC ACIDS USING ISOPSORALENS” (ISAACS, Stephen T., priority 1989, dated 1991)
